Where a name gives a salt, the structure may show the parent alone. Read-outs that look alike come from different tables or passages of the source.
Target: T1, human FPTase (Homo sapiens, UniProt P49354+P49356)
T1 construct: made in house
Assay: In vitro inhibition of ras farnesyl transferase (human FPTase assay)
Assay type: biochemical
Procedure: Assays of farnesyl-protein transferase. […] Reactions were initiated with FPTase and stopped with 1 ml of 1.0 M HCL in ethanol. […] Purified compounds were dissolved in 100% dimethyl sulfoxide (DMSO) and were diluted 20-fold into the assay. Percentage inhibition is measured by the amount of incorporation of radioactivity in the presence of the test compound when compared to the amount of incorporation in the absence of the test compound.
Human FPTase activity was assayed as described above with the exception that 0.1% (w/v) polyethylene glycol 20,000, 10 μM ZnCl2 and 100 nM Ras-CVIM were added to the reaction mixture. Reactions were performed for 30 min., stopped with 100 μl of 30% (v/v) trichloroacetic acid (TCA) in ethanol and processed as described above for the bovine enzyme.

IC50 (human FPTase, 100 nM Ras-CVIM, [3H]-FPP, 30 min, read-out: IC50 of inhibitory activity against human FPTase) | SMILES | IC50
 | N#Cc1ccc(Cc2cncn2CC2CCN(c3ccccc3)C(=O)C2)cc1 (centres unmarked) [Example 1, 4-[5-(4-Cyanobenzyl)imidazol-1-ylmethyl]-1-phenyl-2-piperidinone hydrochloride] | ≤ 10 µM
≤ 10 µM | CCOC(=O)C1(Cc2cccc(C)c2)CCN(Cc2cncn2Cc2ccc(C#N)cc2)CC1=O (centres unmarked) [Example 6, Ethyl 1-[3-(4-cyanobenzyl)-3H-imidazol-4-ylmethyl]-3-oxo-4-(3-methylbenzyl)piperidine-4-carboxylate trifluoroacetate salt] | 

Source: patent US5965578A, “Inhibitors of farnesyl-protein transferase” (Merck & Co., Inc., priority 1997, dated 1999)
